Laboratory results: the supplement of paper PMC8497498

Experiments:
[1] = system: Plasmodium vivax liver stage (primary human hepatocyte culture)
Protocol: (§1)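 Dose-response of P. vivax liver stages in primary human hepatocytes, with 8 points (10 uM-[…], v1) or 12 points in duplicate (50 uM-280 pM, v2). Read-out is high-content imaging of schizont net growth area, hypnozoite quantity and hepatic nuclei. EC50 and CC20 (20% nuclei loss) were fitted in CDD Vault from the highest-quality independent experiment; toxic-dose bell-shaped points were masked. '>' marks the highest concentration with less than 50% activity, and ND means a non-sigmoidal curve.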

[2] = system: Plasmodium vivax liver stage (primary human hepatocyte culture); experiment: maximum inhibition of schizont net growth area; higher = more active
Protocol: as §1

[3] = system: primary human hepatocytes; experiment: CC20 hepatic nuclei (20% reduction); higher = less toxic
Protocol: as §1

[4] = P. vivax isolate: Pv914, hepatocyte lot: BGW, assay mode: Prophylactic, 6-day
[5] = P. vivax isolate: Pv657, hepatocyte lot: BGW, assay mode: Radical Cure, 8-day (treatment from day 5 post-infection)
[6] = P. vivax isolate: Pv590, hepatocyte lot: UBV, assay mode: Radical Cure, 8-day (treatment from day 5 post-infection)
[7] = P. vivax isolate: Pv668, hepatocyte lot: BGW, assay mode: Radical Cure, 8-day (treatment from day 5 post-infection)
[8] = P. vivax isolate: Pv458, hepatocyte lot: UBV, assay mode: Radical Cure, 8-day (treatment from day 5 post-infection)
[9] = P. vivax isolate: Pv728, hepatocyte lot: BGW, assay mode: Radical Cure, 8-day (treatment from day 5 post-infection)
[10] = P. vivax isolate: Pv756, hepatocyte lot: BGW, assay mode: Radical Cure, 8-day (treatment from day 5 post-infection)
[11] = P. vivax isolate: Pv836, hepatocyte lot: BGW, assay mode: Radical Cure, 8-day (treatment from day 5 post-infection)
[12] = P. vivax isolate: Pv923, hepatocyte lot: BGW, assay mode: Radical Cure, 8-day (treatment from day 5 post-infection)
[13] = P. vivax isolate: Pv357, hepatocyte lot: UBV, assay mode: Radical Cure, 8-day (treatment from day 5 post-infection)
[14] = P. vivax isolate: IVS17-02, hepatocyte lot: PDC, assay mode: Radical Cure, 8-day (treatment from day 5 post-infection)
[15] = P. vivax isolate: Pv360, hepatocyte lot: UBV, assay mode: Prophylactic, 6-day
[16] = P. vivax isolate: Pv395, hepatocyte lot: UBV, assay mode: Prophylactic, 6-day
[17] = P. vivax isolate: Pv557, hepatocyte lot: UBV, assay mode: Radical Cure, 8-day (treatment from day 5 post-infection)
[18] = P. vivax isolate: Pv922, hepatocyte lot: BGW, assay mode: Radical Cure, 8-day (treatment from day 5 post-infection)
[19] = P. vivax isolate: Pv772, hepatocyte lot: BGW, assay mode: Prophylactic, 6-day

SMILES: COc1cccc(C=Cc2nc(=O)c3ccccc3o2)c1OC
- EC50 hypnozoite quantity [1, 4]: > 10 µM
- maximum inhibition [2, 4]: 62.6%
- CC20 hepatic nuclei [3, 4]: > 10 µM

SMILES: COc1cc(-c2cc(-c3ccc(S(C)(=O)=O)cc3)cnc2N)ccc1O
- EC50 hypnozoite quantity [1, 5]: > 50 µM
- EC50 schizont net growth area [1, 5]: > 16.7 µM
- maximum inhibition [2, 5]: 80.2%
- CC20 hepatic nuclei [3, 5]: > 50 µM

SMILES: CCN(CC)CCCNc1nc(-c2ccc(Cl)cc2)nc2ccccc12
- EC50 hypnozoite quantity [1, 6]: > 50 µM
- EC50 schizont net growth area [1, 6]: > 5.56 µM
- maximum inhibition [2, 6]: 99.6%
- CC20 hepatic nuclei [3, 6]: 40.2 µM

SMILES: CNC(=S)N/N=C(\C)c1ccccn1
- EC50 hypnozoite quantity [1, 7]: 1.92 µM
- EC50 schizont net growth area [1, 7]: 4.44 µM
- maximum inhibition [2, 7]: 100%
- CC20 hepatic nuclei [3, 7]: > 50 µM

SMILES: COc1ccc(-c2cnc3ccc(NCc4ccc(S(N)(=O)=O)cc4)nn23)cn1
- EC50 hypnozoite quantity [1, 5]: > 50 µM
- maximum inhibition [2, 5]: 79.2%
- CC20 hepatic nuclei [3, 5]: > 50 µM

SMILES: COC1CC(OC2CC(C3OC(C)(O)C(C)CC3C)OC2C2(C)CCC(C3(C)CCC4(CC(O)C(C)C(C(C)C5OC(O)(CC(=O)O)C(C)C(OC)C5OC)O4)O3)O2)OC(C)C1OC.N (centres undefined) [Maduramicin]
- EC50 hypnozoite quantity [1, 8]: 0.0225 µM
- EC50 schizont net growth area [1, 8]: 0.000705 µM
- maximum inhibition [2, 8]: 101%
- CC20 hepatic nuclei [3, 8]: 2.59 µM

SMILES: O=S1(=O)C=CC2ON=C(c3c(Cl)cccc3Cl)C21 (centres undefined)
- EC50 hypnozoite quantity [1, 7]: > 50 µM
- maximum inhibition [2, 7]: 94.8%
- CC20 hepatic nuclei [3, 7]: 45.7 µM

SMILES: CCn1ncc2c(NC3CCOCC3)c(CNC(=O)c3ccnn3C)c(C)nc21
- EC50 hypnozoite quantity [1, 9]: > 50 µM
- EC50 schizont net growth area [1, 9]: 0.0266 µM
- maximum inhibition [2, 9]: 103%
- CC20 hepatic nuclei [3, 9]: > 50 µM

SMILES: N#CC(C#N)=NNc1cc(Cl)cc(Cl)c1
- EC50 hypnozoite quantity [1, 7]: > 50 µM
- EC50 schizont net growth area [1, 7]: 4.04 µM
- maximum inhibition [2, 7]: 85.1%
- CC20 hepatic nuclei [3, 7]: 5.21 µM

SMILES: COc1ccc(-c2cnc3ccc(N4CCCC4)nn23)cc1OC
- EC50 hypnozoite quantity [1, 10]: > 50 µM
- EC50 schizont net growth area [1, 10]: > 16.7 µM
- maximum inhibition [2, 10]: 103%
- CC20 hepatic nuclei [3, 10]: > 16.7 µM

SMILES: c1ccn2c(Sc3ncnc4sccc34)ncc2c1
- EC50 hypnozoite quantity [1, 11]: > 50 µM
- EC50 schizont net growth area [1, 11]: > 5.56 µM
- maximum inhibition [2, 11]: 69.4%
- CC20 hepatic nuclei [3, 11]: 41.4 µM

SMILES: CS(=O)(=O)c1cccc(-c2cnc3[nH]cc(-c4ccc(CCC(=O)O)cc4)c3c2)c1
- EC50 hypnozoite quantity [1, 12]: > 50 µM
- EC50 schizont net growth area [1, 12]: 0.418 µM
- maximum inhibition [2, 12]: 99.2%
- CC20 hepatic nuclei [3, 12]: > 50 µM

SMILES: CC(C)(N)CNC(=O)CC1CCC2(CC1)OOC1(O2)C2CC3CC(C2)CC1C3 (centres undefined) [Arterolane, OZ277]
- EC50 hypnozoite quantity [1, 13]: > 10 µM
- EC50 schizont net growth area [1, 13]: > 10 µM
- maximum inhibition [2, 13]: 51.4%
- CC20 hepatic nuclei [3, 13]: > 10 µM

SMILES: Nc1ncc(-c2ccc(C(F)(F)F)nc2)cc1-c1ccc(C(F)(F)F)nc1
- EC50 hypnozoite quantity [1, 5]: > 50 µM
- EC50 schizont net growth area [1, 5]: 0.19 µM
- maximum inhibition [2, 5]: 87.5%
- CC20 hepatic nuclei [3, 5]: > 50 µM

SMILES: O=S1(=O)C=CC2ON=C(c3ccc(Cl)cc3)C21 (centres undefined)
- EC50 hypnozoite quantity [1, 7]: > 50 µM
- EC50 schizont net growth area [1, 7]: > 1.85 µM
- maximum inhibition [2, 7]: 103%
- CC20 hepatic nuclei [3, 7]: 37.6 µM

SMILES: CC1(C)c2nc(-c3ccc(F)cc3)c(Nc3ccc(F)cc3)n2CCN1C(=O)CN [KAF156]
- EC50 hypnozoite quantity [1, 14]: > 1 µM
- EC50 schizont net growth area [1, 14]: 0.33 µM
- EC50 hypnozoite quantity [1, 15]: 0.0329 µM
- EC50 schizont net growth area [1, 15]: 0.0141 µM
- maximum inhibition [2, 14]: 93.2%
- maximum inhibition [2, 15]: 103%
- CC20 hepatic nuclei [3, 14]: > 1 µM
- CC20 hepatic nuclei [3, 15]: > 10 µM

SMILES: N#Cc1ccc(-c2cnc(N)c(-c3ccc(C(N)=O)cc3)n2)cc1
- EC50 hypnozoite quantity [1, 5]: > 50 µM
- EC50 schizont net growth area [1, 5]: 0.0012 µM
- maximum inhibition [2, 5]: 85.1%
- CC20 hepatic nuclei [3, 5]: > 50 µM

SMILES: Cc1c(Oc2cnc(C(=O)N3CC(C)(O)C3)cn2)ccc2c1B(O)OC2
- EC50 hypnozoite quantity [1, 4]: > 1.11 µM
- EC50 schizont net growth area [1, 4]: 1.63 µM
- maximum inhibition [2, 4]: 99.7%
- CC20 hepatic nuclei [3, 4]: > 10 µM

SMILES: O=C(Nc1cccnn1)N1CCC(=Cc2cccc(Oc3ccc(C(F)(F)F)cn3)c2)CC1
- EC50 hypnozoite quantity [1, 9]: > 10 µM
- EC50 schizont net growth area [1, 9]: 1.23 µM
- maximum inhibition [2, 9]: 99%
- CC20 hepatic nuclei [3, 9]: > 10 µM

SMILES: c1cc(C2CCC3(CC2)OOC2(O3)C3CC4CC(C3)CC2C4)ccc1OCCN1CCOCC1 (centres undefined) [Artefenomel, OZ439]
- EC50 hypnozoite quantity [1, 9]: > 50 µM
- EC50 schizont net growth area [1, 9]: 6.89 µM
- maximum inhibition [2, 9]: 80.3%
- CC20 hepatic nuclei [3, 9]: > 16.7 µM

SMILES: O=C(NCCN1CCCC1)c1cc(NCCCCN2CCC(F)(F)CC2)nc2ccc(Cl)cc12
- EC50 hypnozoite quantity [1, 5]: > 50 µM
- EC50 schizont net growth area [1, 5]: 0.00316 µM
- maximum inhibition [2, 5]: 103%
- CC20 hepatic nuclei [3, 5]: > 50 µM

SMILES: N=c1n(CCN2CCCCC2)c2ccccc2n1CC(O)c1cccc(Br)c1 (centres undefined)
- EC50 hypnozoite quantity [1, 9]: > 50 µM
- EC50 schizont net growth area [1, 9]: > 16.7 µM
- maximum inhibition [2, 9]: 111%
- CC20 hepatic nuclei [3, 9]: 41.8 µM

SMILES: CN(C(=O)c1cc2c(-c3cncnc3)cccc2[nH]1)c1ccccc1
- EC50 hypnozoite quantity [1, 5]: > 50 µM
- EC50 schizont net growth area [1, 5]: 3.11 µM
- maximum inhibition [2, 5]: 84.7%
- CC20 hepatic nuclei [3, 5]: > 50 µM

SMILES: O=C(Nc1nc(-c2ccccn2)cs1)C1CC1c1ccccc1F (centres undefined)
- EC50 hypnozoite quantity [1, 16]: > 10 µM
- maximum inhibition [2, 16]: 94.3%
- CC20 hepatic nuclei [3, 16]: > 10 µM

SMILES: CCN(CC)CCCC(C)Nc1ccnc2cc(Cl)ccc12 (centres undefined) [Chloroquine Diphosphate]
- EC50 hypnozoite quantity [1, 4]: > 16.7 µM
- EC50 schizont net growth area [1, 4]: > 5.56 µM
- maximum inhibition [2, 4]: 99.1%
- CC20 hepatic nuclei [3, 4]: > 16.7 µM

SMILES: Cc1cc(Nc2ccc(C(F)(F)F)nc2)n2nc(C(C)(F)F)nc2n1
- EC50 hypnozoite quantity [1, 4]: > 10 µM
- EC50 schizont net growth area [1, 4]: 0.325 µM
- maximum inhibition [2, 4]: 98.8%
- CC20 hepatic nuclei [3, 4]: > 10 µM

SMILES: Cc1ccnc(Nc2nc(-c3ccccn3)cs2)c1
- EC50 hypnozoite quantity [1, 17]: > 50 µM
- EC50 schizont net growth area [1, 17]: 1.79 µM
- maximum inhibition [2, 17]: 84.1%
- CC20 hepatic nuclei [3, 17]: > 5.56 µM

SMILES: N#CC(c1ccc(Br)cc1)c1ccc2c(C(F)(F)F)cc(C(F)(F)F)nc2n1 (centres undefined)
- EC50 hypnozoite quantity [1, 8]: 0.957 µM
- EC50 schizont net growth area [1, 8]: 1.24 µM
- maximum inhibition [2, 8]: 86%
- CC20 hepatic nuclei [3, 8]: 5.44 µM

SMILES: Cc1sc2ncnc(Sc3nnc(N)s3)c2c1C
- EC50 hypnozoite quantity [1, 18]: > 50 µM
- EC50 schizont net growth area [1, 18]: > 5.56 µM
- maximum inhibition [2, 18]: 86.8%
- CC20 hepatic nuclei [3, 18]: > 16.7 µM

SMILES: CCc1cc(=O)n(C)c(SC(C)C(=O)Nc2ccc(F)cc2)n1 (centres undefined)
- EC50 hypnozoite quantity [1, 12]: > 50 µM
- EC50 schizont net growth area [1, 12]: > 16.7 µM
- maximum inhibition [2, 12]: 87.6%
- CC20 hepatic nuclei [3, 12]: > 50 µM

SMILES: COc1ccc(-c2nn(C(C)C)c3ncnc(N)c23)cc1OC
- EC50 hypnozoite quantity [1, 5]: > 50 µM
- EC50 schizont net growth area [1, 5]: 0.294 µM
- maximum inhibition [2, 5]: 71.3%
- CC20 hepatic nuclei [3, 5]: > 50 µM

SMILES: CC1(CN2CCC(n3c(O)nc4ccccc43)CC2)OCc2ccccc2-n2cccc21 (centres undefined)
- EC50 hypnozoite quantity [1, 9]: > 10 µM
- EC50 schizont net growth area [1, 9]: 0.395 µM
- maximum inhibition [2, 9]: 99.2%
- CC20 hepatic nuclei [3, 9]: > 10 µM

SMILES: CCC(C)C1OC2(CCC1C)CC1CC(CC=C(C)C(OC3CC(OC)C(OC4CC(OC)C(O)C(C)O4)C(C)O3)C(C)C=CC=C3COC4C(O)C(C)=CC(C(=O)O1)C34O)O2 (centres undefined) [Ivermectin]
- EC50 hypnozoite quantity [1, 19]: > 10 µM
- EC50 schizont net growth area [1, 19]: > 3.33 µM
- maximum inhibition [2, 19]: 69.8%
- CC20 hepatic nuclei [3, 19]: > 10 µM

SMILES: COc1ccc(C(=O)C(CCC(CNC(C)(C)C)C(=O)c2ccc(OC)cc2)CNC(C)(C)C)cc1 (centres undefined)
- EC50 hypnozoite quantity [1, 9]: > 50 µM
- EC50 schizont net growth area [1, 9]: 16.6 µM
- maximum inhibition [2, 9]: 88.7%
- CC20 hepatic nuclei [3, 9]: 40.8 µM

SMILES: CC(C)(ON=C(C(=O)NC1C(=O)N2C(C(=O)[O-])=C(C[n+]3ccccc3)CSC12)c1csc(N)n1)C(=O)O (centres undefined) [Ceftazidime pentahydrate]
- EC50 hypnozoite quantity [1, 9]: > 10 µM
- EC50 schizont net growth area [1, 9]: > 10 µM
- maximum inhibition [2, 9]: 47.9%
